# Experimental data from PMC9851200, “Multiparameter phenotypic screening for endogenous TFEB and TFE3 translocation identifies novel chemical series modulating lysosome function” (Autophagy, 2022).
# Like-named read-outs stand apart in the source and are kept apart here.
# Experiments:
# [1] = target: CSNK1E (Homo sapiens, UniProt P49674); experiment: KINOMEscan CSNK1E; format: binding; details: NEW KINOMEscan
# [2] = target: PIKFYVE (Homo sapiens, UniProt Q9Y2I7); experiment: KINOMEscan PIKFYVE; format: binding; details: kinase PIKFYVE; NEW KINOMEscan
# [3] = target: T1, ACVR1B (Homo sapiens, UniProt P36896); experiment: KINOMEscan ACVR1B; format: binding
# T1 sequence (P36896 24-505): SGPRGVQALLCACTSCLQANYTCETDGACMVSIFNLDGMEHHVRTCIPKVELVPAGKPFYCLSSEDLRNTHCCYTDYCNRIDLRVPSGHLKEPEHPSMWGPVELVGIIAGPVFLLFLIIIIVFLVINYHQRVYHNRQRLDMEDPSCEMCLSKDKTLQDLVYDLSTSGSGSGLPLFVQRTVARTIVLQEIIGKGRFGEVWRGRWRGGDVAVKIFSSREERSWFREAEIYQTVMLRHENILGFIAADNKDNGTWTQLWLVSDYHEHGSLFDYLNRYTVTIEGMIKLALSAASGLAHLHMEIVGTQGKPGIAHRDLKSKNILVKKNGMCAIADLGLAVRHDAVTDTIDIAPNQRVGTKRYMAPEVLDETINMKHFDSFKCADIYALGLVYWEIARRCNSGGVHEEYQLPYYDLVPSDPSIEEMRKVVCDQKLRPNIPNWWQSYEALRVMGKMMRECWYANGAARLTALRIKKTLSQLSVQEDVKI
# [4] = target: T2, PRKD3 (Homo sapiens, UniProt O94806); experiment: KINOMEscan PRKD3; format: binding; details: kinase PRKD3; NEW KINOMEscan
# T2 sequence (O94806 1-890): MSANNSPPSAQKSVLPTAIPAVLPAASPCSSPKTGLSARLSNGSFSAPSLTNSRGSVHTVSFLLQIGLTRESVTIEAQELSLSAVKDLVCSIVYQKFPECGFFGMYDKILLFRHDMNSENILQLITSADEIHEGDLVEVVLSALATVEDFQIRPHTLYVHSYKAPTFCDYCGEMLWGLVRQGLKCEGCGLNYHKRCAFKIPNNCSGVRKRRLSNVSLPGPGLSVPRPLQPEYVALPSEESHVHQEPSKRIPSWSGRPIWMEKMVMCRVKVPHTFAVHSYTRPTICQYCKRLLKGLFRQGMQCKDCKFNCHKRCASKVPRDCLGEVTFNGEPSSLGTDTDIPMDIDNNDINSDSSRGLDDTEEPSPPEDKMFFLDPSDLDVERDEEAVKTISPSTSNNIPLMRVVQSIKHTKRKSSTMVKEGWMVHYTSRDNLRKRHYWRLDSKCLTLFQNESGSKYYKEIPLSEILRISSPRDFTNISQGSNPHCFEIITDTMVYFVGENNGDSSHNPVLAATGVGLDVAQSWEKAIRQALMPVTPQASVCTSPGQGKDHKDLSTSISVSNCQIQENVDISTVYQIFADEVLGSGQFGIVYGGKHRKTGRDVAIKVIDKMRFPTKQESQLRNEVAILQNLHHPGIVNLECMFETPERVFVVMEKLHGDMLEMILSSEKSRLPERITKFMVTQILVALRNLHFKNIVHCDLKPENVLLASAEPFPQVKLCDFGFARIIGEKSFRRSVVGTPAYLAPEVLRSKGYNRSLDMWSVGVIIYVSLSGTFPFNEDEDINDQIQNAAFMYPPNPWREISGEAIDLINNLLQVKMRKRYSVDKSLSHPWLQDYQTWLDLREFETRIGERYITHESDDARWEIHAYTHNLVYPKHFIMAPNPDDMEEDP
# [5] = target: BMPR1B (Homo sapiens, UniProt O00238); experiment: KINOMEscan BMPR1B; format: binding; details: NEW KINOMEscan
# [6] = target: kinases (KINOMEscan panel) (Homo sapiens, UniProt Q9BX84); format: binding; details: TRPM6; NEW KINOMEscan
# [7] = target: T3, kinases (KINOMEscan panel) (Homo sapiens, UniProt Q86YV6); format: binding; details: kinase MYLK4; NEW KINOMEscan
# T3 sequence (Q86YV6 1-388): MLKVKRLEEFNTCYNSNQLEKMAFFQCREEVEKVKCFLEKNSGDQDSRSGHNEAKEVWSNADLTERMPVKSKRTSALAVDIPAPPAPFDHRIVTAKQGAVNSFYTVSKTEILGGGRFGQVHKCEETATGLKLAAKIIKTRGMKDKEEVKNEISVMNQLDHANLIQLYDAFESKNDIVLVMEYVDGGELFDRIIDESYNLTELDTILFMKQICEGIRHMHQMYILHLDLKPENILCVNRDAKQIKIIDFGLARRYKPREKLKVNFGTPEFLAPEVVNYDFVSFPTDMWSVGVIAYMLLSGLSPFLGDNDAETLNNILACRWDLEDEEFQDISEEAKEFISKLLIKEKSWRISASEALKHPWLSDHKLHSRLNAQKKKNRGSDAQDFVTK
# [8] = target: kinases (KINOMEscan panel) (Homo sapiens, UniProt P22607, G697C); format: binding; details: FGFR3(G697C); NEW KINOMEscan
# [9] = target: T4, TGFBR1 (Homo sapiens, UniProt P36897); experiment: KINOMEscan TGFBR1; format: binding
# T4 sequence (P36897 34-503): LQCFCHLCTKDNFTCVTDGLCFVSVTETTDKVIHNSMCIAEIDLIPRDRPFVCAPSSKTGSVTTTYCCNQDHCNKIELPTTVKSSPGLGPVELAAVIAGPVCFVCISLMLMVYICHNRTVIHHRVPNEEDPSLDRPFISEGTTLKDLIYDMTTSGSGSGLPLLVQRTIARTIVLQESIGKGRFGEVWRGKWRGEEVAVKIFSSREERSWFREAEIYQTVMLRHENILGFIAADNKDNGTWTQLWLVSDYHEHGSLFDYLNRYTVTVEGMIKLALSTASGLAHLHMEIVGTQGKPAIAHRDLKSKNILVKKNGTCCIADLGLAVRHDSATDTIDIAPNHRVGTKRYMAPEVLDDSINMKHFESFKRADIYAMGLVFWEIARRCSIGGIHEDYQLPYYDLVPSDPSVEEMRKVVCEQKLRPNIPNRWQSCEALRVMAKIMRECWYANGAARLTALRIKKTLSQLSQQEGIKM
# [10] = target: MTOR (Homo sapiens, UniProt P42345); experiment: KINOMEscan MTOR; format: binding; details: NEW KINOMEscan
# [11] = target: MAPK9/JNK2 (Homo sapiens, UniProt P45984); format: binding
# [12] = target: kinases (KINOMEscan panel) (Homo sapiens, UniProt P48729); design: method as in original PKIS2 published data; details: CSNK1A1; Published KINOMEscan; ref original PKIS2 published data; cited from earlier work
# Chain of kinases (KINOMEscan panel) (Homo sapiens, UniProt P48729) (P48729 whole entry): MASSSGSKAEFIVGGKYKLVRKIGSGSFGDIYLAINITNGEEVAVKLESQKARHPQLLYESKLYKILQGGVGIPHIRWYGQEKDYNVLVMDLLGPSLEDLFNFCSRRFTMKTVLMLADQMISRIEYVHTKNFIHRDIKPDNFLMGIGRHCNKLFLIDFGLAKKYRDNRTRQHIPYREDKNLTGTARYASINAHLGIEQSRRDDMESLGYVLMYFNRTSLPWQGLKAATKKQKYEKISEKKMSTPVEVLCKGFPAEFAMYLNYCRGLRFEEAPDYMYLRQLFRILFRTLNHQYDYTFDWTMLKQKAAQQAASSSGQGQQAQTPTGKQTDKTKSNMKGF
# Chain of CSNK1E (P49674 whole entry): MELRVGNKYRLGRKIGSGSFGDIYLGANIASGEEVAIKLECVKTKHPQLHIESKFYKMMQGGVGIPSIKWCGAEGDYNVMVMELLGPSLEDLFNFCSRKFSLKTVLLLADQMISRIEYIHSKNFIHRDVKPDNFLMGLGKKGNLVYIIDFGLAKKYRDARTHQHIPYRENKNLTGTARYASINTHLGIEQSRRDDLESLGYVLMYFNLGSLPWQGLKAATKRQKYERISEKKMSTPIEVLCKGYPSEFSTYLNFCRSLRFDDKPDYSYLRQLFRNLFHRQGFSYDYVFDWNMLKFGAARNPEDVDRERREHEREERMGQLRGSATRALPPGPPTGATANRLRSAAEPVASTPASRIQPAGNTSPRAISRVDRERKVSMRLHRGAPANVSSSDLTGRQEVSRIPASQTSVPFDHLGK
# Chain of BMPR1B (O00238 14-502): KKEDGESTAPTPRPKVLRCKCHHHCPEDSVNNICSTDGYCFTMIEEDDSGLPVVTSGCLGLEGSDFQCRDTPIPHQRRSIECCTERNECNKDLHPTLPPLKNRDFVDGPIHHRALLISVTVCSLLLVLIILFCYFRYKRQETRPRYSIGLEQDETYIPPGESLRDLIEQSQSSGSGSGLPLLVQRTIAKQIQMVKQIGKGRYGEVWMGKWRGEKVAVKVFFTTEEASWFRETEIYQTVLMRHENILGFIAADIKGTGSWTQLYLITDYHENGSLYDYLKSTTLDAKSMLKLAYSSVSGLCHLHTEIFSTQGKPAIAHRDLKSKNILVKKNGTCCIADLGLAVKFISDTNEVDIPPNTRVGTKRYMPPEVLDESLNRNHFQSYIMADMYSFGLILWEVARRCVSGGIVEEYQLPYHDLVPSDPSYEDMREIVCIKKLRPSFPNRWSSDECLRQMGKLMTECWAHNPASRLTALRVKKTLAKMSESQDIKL
# Chain of PIKFYVE (Q9Y2I7 whole entry): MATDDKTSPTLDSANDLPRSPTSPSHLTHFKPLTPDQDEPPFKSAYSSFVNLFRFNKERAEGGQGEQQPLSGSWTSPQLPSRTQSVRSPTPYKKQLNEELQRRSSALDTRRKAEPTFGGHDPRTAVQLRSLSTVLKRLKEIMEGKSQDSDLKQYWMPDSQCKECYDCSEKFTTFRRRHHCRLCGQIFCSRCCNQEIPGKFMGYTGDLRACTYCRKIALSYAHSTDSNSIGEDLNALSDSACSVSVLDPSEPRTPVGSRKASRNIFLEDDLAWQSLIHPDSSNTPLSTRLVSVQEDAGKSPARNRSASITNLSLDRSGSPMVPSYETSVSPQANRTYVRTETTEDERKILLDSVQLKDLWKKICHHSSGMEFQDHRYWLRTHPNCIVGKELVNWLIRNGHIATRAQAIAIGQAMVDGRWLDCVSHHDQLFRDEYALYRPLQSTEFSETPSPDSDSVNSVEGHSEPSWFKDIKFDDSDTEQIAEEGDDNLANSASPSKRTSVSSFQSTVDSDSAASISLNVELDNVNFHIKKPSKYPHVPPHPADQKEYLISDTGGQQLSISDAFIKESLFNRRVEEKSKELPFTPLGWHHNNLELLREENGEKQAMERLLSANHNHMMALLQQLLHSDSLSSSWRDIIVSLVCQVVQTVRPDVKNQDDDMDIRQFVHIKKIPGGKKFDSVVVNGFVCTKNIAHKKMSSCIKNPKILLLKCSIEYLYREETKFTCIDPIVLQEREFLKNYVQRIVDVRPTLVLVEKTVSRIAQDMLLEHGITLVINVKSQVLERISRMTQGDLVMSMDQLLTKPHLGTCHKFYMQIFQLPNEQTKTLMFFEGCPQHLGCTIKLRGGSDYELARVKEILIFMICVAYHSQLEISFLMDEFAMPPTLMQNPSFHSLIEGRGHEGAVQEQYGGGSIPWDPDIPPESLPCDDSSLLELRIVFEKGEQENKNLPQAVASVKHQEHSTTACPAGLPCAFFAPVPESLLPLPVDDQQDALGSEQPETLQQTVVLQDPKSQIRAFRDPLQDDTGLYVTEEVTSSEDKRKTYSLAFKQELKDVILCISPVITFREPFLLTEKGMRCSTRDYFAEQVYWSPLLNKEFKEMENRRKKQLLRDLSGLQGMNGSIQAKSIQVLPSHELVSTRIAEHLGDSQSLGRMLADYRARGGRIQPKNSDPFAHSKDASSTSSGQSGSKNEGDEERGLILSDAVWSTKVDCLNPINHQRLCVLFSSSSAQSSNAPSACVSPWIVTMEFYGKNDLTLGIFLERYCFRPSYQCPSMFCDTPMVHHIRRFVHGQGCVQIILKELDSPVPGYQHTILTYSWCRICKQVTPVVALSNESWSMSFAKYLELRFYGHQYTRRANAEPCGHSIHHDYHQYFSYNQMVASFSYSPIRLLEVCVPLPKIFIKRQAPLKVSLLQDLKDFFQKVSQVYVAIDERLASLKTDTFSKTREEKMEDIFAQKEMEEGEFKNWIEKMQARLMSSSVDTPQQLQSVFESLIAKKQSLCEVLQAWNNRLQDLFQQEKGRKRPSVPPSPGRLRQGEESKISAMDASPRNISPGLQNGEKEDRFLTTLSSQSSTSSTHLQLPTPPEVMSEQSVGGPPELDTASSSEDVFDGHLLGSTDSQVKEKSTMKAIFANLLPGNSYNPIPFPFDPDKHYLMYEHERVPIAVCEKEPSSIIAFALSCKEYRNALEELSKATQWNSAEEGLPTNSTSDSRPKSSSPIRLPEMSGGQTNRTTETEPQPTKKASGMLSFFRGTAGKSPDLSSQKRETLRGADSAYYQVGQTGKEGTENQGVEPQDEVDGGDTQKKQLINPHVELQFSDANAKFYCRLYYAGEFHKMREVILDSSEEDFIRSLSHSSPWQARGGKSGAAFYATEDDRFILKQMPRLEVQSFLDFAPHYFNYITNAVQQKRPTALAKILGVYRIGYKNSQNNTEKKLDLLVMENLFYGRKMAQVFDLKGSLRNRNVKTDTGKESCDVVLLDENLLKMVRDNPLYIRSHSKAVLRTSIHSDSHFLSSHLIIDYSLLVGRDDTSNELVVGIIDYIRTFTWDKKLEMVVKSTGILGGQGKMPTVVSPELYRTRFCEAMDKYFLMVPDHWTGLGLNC
# Chain of kinases (KINOMEscan panel) (Homo sapiens, UniProt P22607, G697C) (P22607 23-806 G697C): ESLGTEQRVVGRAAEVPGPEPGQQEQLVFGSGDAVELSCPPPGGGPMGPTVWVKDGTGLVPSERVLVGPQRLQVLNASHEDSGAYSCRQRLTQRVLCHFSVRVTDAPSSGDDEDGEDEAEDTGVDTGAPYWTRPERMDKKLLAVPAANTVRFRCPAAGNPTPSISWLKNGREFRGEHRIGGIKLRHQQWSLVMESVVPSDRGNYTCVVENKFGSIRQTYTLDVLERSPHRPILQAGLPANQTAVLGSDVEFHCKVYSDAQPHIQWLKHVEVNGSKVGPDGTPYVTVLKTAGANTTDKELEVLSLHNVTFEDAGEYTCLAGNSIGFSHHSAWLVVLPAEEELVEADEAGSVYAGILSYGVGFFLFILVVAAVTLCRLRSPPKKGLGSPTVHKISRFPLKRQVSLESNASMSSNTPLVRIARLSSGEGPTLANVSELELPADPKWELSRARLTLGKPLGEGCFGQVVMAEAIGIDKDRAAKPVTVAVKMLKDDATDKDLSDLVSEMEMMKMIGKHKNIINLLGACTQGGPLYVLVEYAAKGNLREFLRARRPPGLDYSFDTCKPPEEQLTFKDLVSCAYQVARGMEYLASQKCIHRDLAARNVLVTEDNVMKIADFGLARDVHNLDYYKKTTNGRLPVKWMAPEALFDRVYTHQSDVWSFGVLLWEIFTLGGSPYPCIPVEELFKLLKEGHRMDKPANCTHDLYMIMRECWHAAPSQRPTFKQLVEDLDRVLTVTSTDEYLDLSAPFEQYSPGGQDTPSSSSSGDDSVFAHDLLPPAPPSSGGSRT
# Chain of MAPK9/JNK2 (P45984 whole entry): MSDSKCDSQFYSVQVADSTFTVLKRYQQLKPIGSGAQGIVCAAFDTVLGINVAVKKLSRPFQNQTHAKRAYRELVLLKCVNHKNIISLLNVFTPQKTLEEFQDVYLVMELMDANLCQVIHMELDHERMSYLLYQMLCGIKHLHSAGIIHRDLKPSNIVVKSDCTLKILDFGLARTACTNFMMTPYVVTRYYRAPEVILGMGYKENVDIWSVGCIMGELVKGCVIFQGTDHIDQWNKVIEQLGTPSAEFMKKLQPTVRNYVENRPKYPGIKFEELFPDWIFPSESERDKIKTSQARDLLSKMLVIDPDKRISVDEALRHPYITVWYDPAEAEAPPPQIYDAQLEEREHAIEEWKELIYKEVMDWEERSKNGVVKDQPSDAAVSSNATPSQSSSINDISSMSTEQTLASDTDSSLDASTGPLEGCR
SMILES,KINOMEscan CSNK1E [1],KINOMEscan PIKFYVE [2],KINOMEscan ACVR1B [3],KINOMEscan PRKD3 [4],KINOMEscan BMPR1B [5],KINOMEscan TRPM6 [6],KINOMEscan MYLK4 [7],KINOMEscan FGFR3(G697C) [8],KINOMEscan TGFBR1 [9],KINOMEscan MTOR [10],"KINOMEscan ACVR1B ([3]; ACVR1B, NEW KINOMEscan)",KINOMEscan MAPK9/JNK2 [11],"KINOMEscan TGFBR1 ([9]; TGFBR1, NEW KINOMEscan)",KINOMEscan CSNK1A1 [12]
Cc1cccc(-c2nc(Nc3ccc4nn(C)cc4c3)c3ccccc3n2)n1 [NK167],8,0,20,39,0,0,0,6,21,0,,,,
Cc1cccc(-c2nc(N(C)c3ccc4ncsc4c3)c3ccccc3n2)n1 [NK-161],7,16,,74,8,0,0,0,,4,28,7,12,
Cc1cccc(-c2nc(Nc3ccncc3)c3ccccc3n2)n1 [NK215],,,,,,,,,,,,,,46
